In patent publication US20040072753A1, “Peptides for use in the treatment of alzheimer's disease” (priority 2000, published 2004):
Where a SMILES comes first, the peptide text is derived from it.

Legend:
recombinant human cdc2 = recombinant human cdc2 (Homo sapiens, UniProt P06493); assay: Binding of biotinylated Aβ peptides to recombinant human cdc2 coated plates (ELISA); settings: biotinylated peptide 200 pM, 37° C. 4 hours
Method: (§1) After washing to remove unbound material, an alkaline phosphatase polymer-streptavidin conjugate (Sigma, Dorset, UK) was added and incubated at 37° C. for 2 hours.

[1] = biological target: T1, recombinant p34-cdc2/cyclin B1 (Homo sapiens, UniProt P06493); assay: Phosphorylation of biotinylated Aβ peptides by recombinant p34-cdc2/cyclin B1 (32P incorporation); assay type: biochemical; settings: 25 μM biotinylated peptide, 10 min at 30° C.
T1 construct: purchased Promega, UK
T1 sequence (P06493 whole entry): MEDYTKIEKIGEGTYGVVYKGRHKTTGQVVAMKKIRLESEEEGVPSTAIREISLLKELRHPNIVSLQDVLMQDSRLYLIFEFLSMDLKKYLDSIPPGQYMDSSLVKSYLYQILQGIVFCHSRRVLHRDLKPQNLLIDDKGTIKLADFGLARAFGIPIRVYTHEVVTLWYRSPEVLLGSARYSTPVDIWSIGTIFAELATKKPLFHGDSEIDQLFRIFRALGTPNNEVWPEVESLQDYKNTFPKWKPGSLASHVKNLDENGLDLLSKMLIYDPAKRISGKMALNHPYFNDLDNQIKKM
T1 sequence (P14635 whole entry partner): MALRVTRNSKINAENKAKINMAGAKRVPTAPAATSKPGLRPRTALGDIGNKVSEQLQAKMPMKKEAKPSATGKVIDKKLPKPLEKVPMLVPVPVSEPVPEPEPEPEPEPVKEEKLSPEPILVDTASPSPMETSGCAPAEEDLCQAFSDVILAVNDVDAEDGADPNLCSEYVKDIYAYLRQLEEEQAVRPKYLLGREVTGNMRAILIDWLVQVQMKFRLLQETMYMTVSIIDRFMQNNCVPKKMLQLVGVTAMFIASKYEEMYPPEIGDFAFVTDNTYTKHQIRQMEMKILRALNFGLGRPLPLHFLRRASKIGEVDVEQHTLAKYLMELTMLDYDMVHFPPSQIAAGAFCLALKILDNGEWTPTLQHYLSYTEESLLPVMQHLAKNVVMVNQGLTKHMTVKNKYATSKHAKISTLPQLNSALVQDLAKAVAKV
From the text: (§2) The membrane was washed four times in 2 M NaCl, followed by four times in 2 M NaCl containing 1% (v/v) H3PO4 and finally twice in deionized H2O to remove unbound material.

[2] = biological target: recombinant human cyclin B1 (Homo sapiens, UniProt P14635); assay: Binding of biotinylated Aβ peptides to cyclin B1 coated plates (ELISA); settings: biotinylated peptide
Sequence of recombinant human cyclin B1 (P14635 whole entry): as the sequence (P14635 whole entry partner) above
Method: as §1
Cyclins are co-factors for cdc2 which are required for enzyme activity. These proteins also contain substrate recognition sequences which may play a role in the recruitment of substrate molecules to the active cdc2/cyclin complex. The recombinant cdc2/cyclin enzyme complex used in the above phosphorylation experiments contained cyclin B1. […] Binding assays as described above using cyclin B1 coated plates were carried out.

cdc2/cyclin B1 = biological target: T2, cdc2/cyclin B1 (Homo sapiens, UniProt P06493+P14635); assay: cdc2/cyclin B1 phosphorylation of biotinylated histone H1 substrate peptide; assay type: biochemical
T2 construct: purchased Promega, UK
T2 sequence (P06493 whole entry): as the sequence (P06493 whole entry) above
T2 sequence (P14635 whole entry): as the sequence (P14635 whole entry partner) above
From the text: as §2
Since Aβ binds to both the cdc2 and cyclin B1 components of the active enzyme it is possible that Aβ modulates the activity of the kinase.

biotinylated Aβ 1-42 = biotinylated Aβ 1-42 (Homo sapiens, UniProt P05067); assay: Binding of biotinylated Aβ 1-42 to CAβBP or EAβBP coated plates (ELISA, Scatchard); settings: biotinylated peptide 200 pM
Sequence of biotinylated Aβ 1-42 (P05067 672-713 limits assumed): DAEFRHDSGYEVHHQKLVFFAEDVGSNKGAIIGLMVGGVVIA
Method: After washing to remove unbound material, an alkaline phosphatase polymer-streptavidin conjugate (Sigma, Dorset, UK) was added and incubated at 37° C. for 2 hours. After washing to remove unbound material, p-nitrophenylphosphate substrate was added and absorbance at 405 nm determined.

biotinylated Aβ 12-28 = biotinylated Aβ 12-28 (Homo sapiens, UniProt P05067); assay: Binding of biotinylated Aβ 12-28 to CAβBP or EAβBP coated plates (ELISA); settings: biotinylated peptide 200 pM
Method: Biotinylated Aβ1-42, Aβ12-28 and Aβ 25-35 (from SEQ ID NO. 2) were prepared using a LinKit-Biolink kit (ISL, Paignton, UK). ELISA plates were coated with CAβBP (catalase residues 400409) or EAβBD (ERAB residues 99-108) (1 μg ml^−1) in carbonate buffer and unoccupied sites blocked with 5% (w/v) dried milk. Biotinylated peptides (200 pM) were incubated alone, with control peptides or with unlabelled Aβ peptides in PBS (containing 0.1% BSA and 0.05% Tween-20) at 37° C. for 4 hours. After washing to remove unbound material, an alkaline phosphatase polymer-streptavidin conjugate (Sigma, Dorset, UK) was added and incubated at 37° C. for 2 hours. After washing to remove unbound material, p-nitrophenylphosphate substrate was added and absorbance at 405 nm determined. Affinity constants were determined by incubating catalase or CAβBP coated plates with biotinylated peptides (200 pM) plus Aβ peptides over a range of concentrations (0-100 nM) and detection of bound peptides was carried out by ELISA.

[3] = biological target: T3, catalase EC 1.11.1.6 from human erythrocytes (Homo sapiens, UniProt P04040); assay: Catalase enzyme activity, inhibition by Aβ peptides; assay type: biochemical; settings: test peptides 2 μM
T3 construct: catalase EC 1.11.1.6 from human erythrocytes (Sigma, Dorset, UK) was used; purchased Sigma, Dorset, UK; host or cells: human erythrocytes
T3 sequence (P04040 2-527 limits assumed): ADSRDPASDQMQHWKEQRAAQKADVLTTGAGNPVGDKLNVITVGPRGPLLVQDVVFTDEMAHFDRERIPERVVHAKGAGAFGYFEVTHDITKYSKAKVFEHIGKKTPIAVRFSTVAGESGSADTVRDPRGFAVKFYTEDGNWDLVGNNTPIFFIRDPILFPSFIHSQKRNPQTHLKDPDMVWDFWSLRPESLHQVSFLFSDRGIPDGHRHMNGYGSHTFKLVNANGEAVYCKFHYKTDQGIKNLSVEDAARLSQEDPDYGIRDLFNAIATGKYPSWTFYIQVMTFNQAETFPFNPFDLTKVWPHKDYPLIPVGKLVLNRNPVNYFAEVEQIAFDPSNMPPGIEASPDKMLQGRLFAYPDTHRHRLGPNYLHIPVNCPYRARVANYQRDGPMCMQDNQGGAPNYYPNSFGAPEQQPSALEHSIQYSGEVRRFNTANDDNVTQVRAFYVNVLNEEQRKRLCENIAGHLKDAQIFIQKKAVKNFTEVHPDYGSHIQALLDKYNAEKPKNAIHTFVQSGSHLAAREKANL
Method: For catalase activity catalase EC 1.11.1.6 from human erythrocytes (Sigma, Dorset, UK) was used for all incubation experiments. Activity of Catalase (5kU I^−1) incubated with test peptides (2 μM) was determined after incubation in 60 mM sodium-potassium phosphate buffer at 37° C. in a total volume of 100 μl. After incubation catalase activity was determined by mixing 50 μl sample with 50 μl substrate (6.5 μmol H2O2 in phosphate buffer) for 60 secs, adding 100 μl of 32.4 mM ammonium molybdate and measurement of absorbance change at 405 nm. Catalase activity was calculated from a standard curve (0-10OkU I^−1) using purified human catalase of known activity (Milton, Biochem. J. 344: 293-296 (1999)).

[4] = test system: SP2/0-Ag-14 mouse myeloma cells; assay: Cytotoxicity of Aβ peptides, trypan blue dye exclusion; assay type: cell-based; settings: test peptides 20 μM, 24 hours
Method: SP2/0-Ag-14 mouse myeloma cells were maintained in RPMI 1640 medium containing 10% fetal calf serum at 37° C. in a 5% CO2 humidified atmosphere. For cytotoxicity experiments 2×1 05 cells were plated in 24 well dishes in 1 ml PBS containing 0.1% BSA and test peptides (20 μM) for 24 hours. Cell viability was determined by trypan blue dye exclusion with at least 100 cells counted per well (Milton, Biochem. J. 344: 293-296 (1999)).

Sequence of recombinant human cdc2 (P06493 whole entry): as the sequence (P06493 whole entry) above

Row | binding of biotinylated Aβ 1-42 (biotinylated Aβ 1-42) | binding of biotinylated Aβ 12-28 (biotinylated Aβ 12-28) | block of the inhibition of catalase enzyme activity by Aβ 1-42 [3] | Compound | binding to human cdc2 (recombinant human cdc2) | phosphorylation by cdc2 (incorporation of 32P from γ32P-ATP) [1] | binding to cyclin B1 [2] | effect on phosphorylation of the H1 peptide by cdc2/cyclin B1 (cdc2/cyclin B1) | block of the cytotoxicity of Aβ 1-42 [4] | block of the cytotoxicity of Aβ fragments containing residues 17-35 [4]
1 | – | – | – | Aβ 25-35: functional neurotoxic domain fragment of Aβ (GSNKGAIIGLM) | bound | incorporated | bound | increased | – | –
2 | specifically bound | specifically bound | no effect | CC(C)C[C@H](NC(=O)[C@H](CC(N)=O)NC(=O)[C@H](Cc1ccc(O)cc1)NC(=O)[C@@H](NC(=O)[C@@H](N)CCCCN)[C@@H](C)O)C(=O)N[C@@H](CCCCN)C(=O)N[C@@H](CCCCN)C(=O)NCC(=O)N[C@@H](CCC(N)=O)C(=O)N[C@H](C(=O)O)[C@@H](C)O [EAβBP] (H-KTYNLKKGQT-OH; N-terminus and C-terminus assumed) | – | – | – | – | able to block | able to block
